Patent US8546338B2, “Self-assembling hydrogels based on dicephalic peptide amphiphiles” (Johnson & Johnson Consumer Companies, Inc., priority 2010, dated 2013)

What was measured:
Format in all cases: physicochemical
[1] = Dissolution of DPA in ultrapure water; conditions: ultrapure water (>18 MΩ resistivity)
Procedure: (§1) Inversion tests were performed to determine qualitatively under which conditions the various DPAs formed self-supporting hydrogels. The various types of DPAs were tested by dissolving them in ultrapure water (>18 MΩ resistivity) at double the desired final concentration followed by mixing in a 1:1 ratio with different liquid mediums. Gelation was deemed to have occurred if the gel supported its own weight upon inverting the vial (FIG. 3A and FIG. 3B). Gelation was tested at final concentrations of 1, 2 and 4 weight percent. We tested phosphate buffered saline (PBS), and Dulbecco's modified eagle media (DMEM) as liquid medium. Typical scale is 100 μl each of DPA solution in water and mixing medium but other scales have been tested. Finally, if no spontaneous gelation occurs, 10 μl of 100 mg/cc calcium chloride solution was added to induce gelation.

[2] = Gelation experiments: inversion test for self-supporting hydrogels
Procedure: as §1

[3] = Titration of DPA acid groups with calcium ions; conditions: calcium titrated down from 16 to 1 equivalent by halving
Text: The […] (SEQ ID NO: 3) DPA was titrated with calcium ions to determine the number of acid groups that required ion complexation in order for gelation to occur. Theoretically, there are eight acid groups (four per head group) that could be involved in the gelation process (FIG. 4).

SMILES | Solubility in ultrapure water [1] | Gelation (self-supporting gel on inversion), Calcium added ([2]; DMEM plus 10 μl of 100 mg/cc calcium chloride solution) | Concentration at which gel forms, Calcium added ([2]; DMEM with calcium chloride added) | Gelation (self-supporting gel on inversion), DMEM ([2]; DPA solution in water mixed 1:1 with DMEM, no calcium added) | Minimal concentration at which gel formed ([2]; in DMEM with calcium added) | Gelation (self-supporting gel on inversion), Water ([2]; in water, final concentrations 1, 2 and 4 weight percent tested) | Transition point between stable gel formation and no or weak gel formation [3]
CCCCCCCCCCCCCCCC(=O)NC(C(=O)N[C@H](C(=O)N[C@@H](C)C(=O)N[C@H](C(=O)N[C@@H](C)C(=O)N[C@H](C(=O)N[C@@H](C)C(=O)N[C@@H](CCCCN)C(=O)N[C@@H](C)C(=O)O)C(C)C)C(C)C)C(C)C)C(=O)N[C@H](C(=O)N[C@@H](C)C(=O)N[C@H](C(=O)N[C@@H](C)C(=O)N[C@H](C(=O)N[C@@H](C)C(=O)N[C@@H](CCCCN)C(=O)N[C@@H](C)C(=O)O)C(C)C)C(C)C)C(C)C [Val-Ala-Val-Ala-Val-Ala-Lys-Ala] | could not be solubilized | – | – | – | – | – | –
CCCCCCCCCCCCCCCC(=O)NC(C(=O)N[C@H](C(=O)N[C@@H](C)C(=O)N[C@H](C(=O)N[C@@H](C)C(=O)N[C@H](C(=O)N[C@@H](C)C(=O)N[C@@H](CCC(=O)O)C(=O)N[C@@H](CCC(=O)O)C(=O)N[C@@H](CCC(=O)O)C(=O)O)C(C)C)C(C)C)C(C)C)C(=O)N[C@H](C(=O)N[C@@H](C)C(=O)N[C@H](C(=O)N[C@@H](C)C(=O)N[C@H](C(=O)N[C@@H](C)C(=O)N[C@@H](CCC(=O)O)C(=O)N[C@@H](CCC(=O)O)C(=O)N[C@@H](CCC(=O)O)C(=O)O)C(C)C)C(C)C)C(C)C [Val-Ala-Val-Ala-Val-Ala-Glu-Glu-Glu] | – | Yes | 2 wt % | No | 2 weight percent | No | between two and one equivalent of calcium
